Laboratory results: US6610297B1, “Peptide immunogens for vaccination against and treatment of allergy” (Novartis AG, priority 1996, dated 2003)
Where no end group is shown, it is not given here.

Tests used:
BSW17 [1] = assay: Recognition of phage-displayed peptides by BSW17 (phage display library screening); format: binding; design: key: + + +: +(++), +/− = intensity of recognition by BSW 17; +(++), +/− = intensity of recognition by BSW 17; +(++), +/− = intensity of recognition by BSW 17; + /−: +(++), +/− = intensity of recognition by BSW 17; details: phage-displayed circular peptides, group A
Description: Bacteriophage particles specifically recognized by BSW17 are identified by biopanning of phage libraries displaying linear or circular random peptides from 6 to 15 amino acid residues in length fused to phage peptides pIII and pVIII, respectively. For amplification of phage libraries, 2 ml of a liquid culture of E. coli XL-I blue grown in SB medium to OD600=1.0 are incubated with 10^10 phages for 15 minutes at room temperature. 10 ml of SB medium containing […] of tetracycline and 20 μg/ml of carbenicillin are added and 10 μl, 1 μl and 0.1 μl, respectively, are plated on LB plates containing 100 μg/ml of carbenicillin. The culture is incubated at 37° with vigorous shaking for one hour, then 100 ml of SB containing 10 μg/ml of tetracycline and 50 μg/ml of carbenicillin are added and incubation is continued for one hour. 10^12 cfu of VCS M13 helper phage are added. After 2 hours with vigorous shaking at 37°. kanamycin is added to a final concentration of 70 μg/ml and incubation continued overnight. After centrifugation at 4000 g and 4° for 20 minutes, supernatants are mixed with 38 ml of an ice-cold sterile filtered solution of 12% NaCl and 16% PEG 8000, cooled on ice for 30 minutes and centrifuged for 30 minutes at 10000 g at 4°. The phage pellet is solubilized in 2 ml of TBS containing 1.5% casein and stored at 4°. For biopanning, COSTAR® RIA plates (Costar 3690) are coated over-night at 4° with 20 μg/ml of BSW17 in 0.1 M carbonate buffer, pH 9.6, and thereafter blocked with TBS containing 1.5% casein. 2×10^11 cfu of phages are added and incubated at 37° for 2 hours, then washed ten times with PBS/0.1% Tween 20. The wells are rinsed with water and the bound phages eluted with a total of 200 μl of 0.1 M HCl, pH 2.2 for 10 minutes. Eluted phages are neutralized with 2 M Tris base and amplified as described above.
For the selection of positive clones 50 μl of a E. coli XL-I blue liquid culture grown in SB-medium to OD600=1.0 are incubated with 1 μl of a 10^−8 dilution of amplified phages after the 3rd round of panning for 15 minutes at room temperature, then plated on LB plates containing 100 μg/ml of carbenicillin and grown overnight. Colonies are randomly picked and plated on LB plates containing 100 μg/ml of carbenicillin. After 4 hours at 37°, nitrocellulose filters soaked with 10 mM of IPTG are put on top and incubation continued overnight at 32°. Filters are removed and incubated at 37° for 30 minutes in a CHCl3-atmosphere. […]
The nucleotide sequence of the DNA encoding these peptides was determined. […]

BSW17 [2] = assay: ELISA: binding of mimotope-displaying phage particles to coated BSW17; details: FIG. 5; phage titer 10^9 cfu/ml; 10 μg coated antibody
Description: (§1) 10 μg of BSW17 and various monoclonal antibodies are coated to the wells of COSTAR® plates following standard ELISA procedures. After blocking with BSA, the wells are incubated with 100 μl of standard ELISA incubation buffer containing bacteriophage particles obtained from phage-infected bacterial culture supernatants with a phage titer of 10^9 cfu/ml. After washing, the plates are incubated with 5 μg of horseradish peroxidase (HRP)-coupled anti-M13 antiserum (Pharmacia, Uppsala, Sweden) in incubation buffer. All incubations are carried out at room temperature for 1 hour. After final washing, phage particles bound to the coated antibodies are visualized via the bound HRP-anti M13 serum by chromogenic substrate development following standard ELISA procedure. […] As negative non-antibody control, recombinant FcεRI α-chain and as positive control, wells coated with polyclonal anti-M13 antiserum are included.

[3] = tested on: 8E7, 3G9, 5H10 (monoclonal anti-Cε3 antibodies) and 5H5/F8 (against human FcεRIα); assay: ELISA: binding of mimotope-displaying phage particles to other coated monoclonal antibodies; details: FIG. 5; phage titer 10^9 cfu/ml; 10 μg coated antibody
Description: as §1

BSW17/IgE binding = assay: Competition RIA: binding of 125I-labelled IgE to BSW17 in the presence of phage particles; design: species or system human; details: FIG. 6; for Inhibition of labelled IgE binding to BSW17, equal to non-labelled IgE concentration: 10^11 cfu/ml of phage particles, estimated from standard inhibition curve
Description: Bacterial cells are grown in SB containing 10 μg/ml of tetracycline and 50 μg/ml of carbenicillin to OD600=0.4, then VCS M13 helper phage is added and incubation continued for 2 hours at 37°. Then kanamycin is added to a final concentration of 70 μg/ml and incubation continued overnight. Phage particles are precipitated with polyethyleneglycol. Soft RIA plates are coated with 20 μg/ml of BSW17 in 0.1 M carbonate buffer pH 9.6 and then blocked with TBS containing 1.5% casein. Human IgE is ^125I-labelled by the chloramine-T method and 100000 cpm per well are used for binding to BSW17 coated to the RIA plates in the presence of increasing concentrations of non-labelled IgE (standard curve) or phage particles, respectively. All experiments are performed at room temperature and plates are washed 3 times with 0.9% NaCl+0.05% Tween 20, cut in pieces and each well was measured in a γ-counter for 1 minute.
Closed circles show a standard inhibition curve by unlabelled IgE to allow an estimation of inhibition of labeled IgE binding in the presence of 10^11 cfu/ml of phage particles. The inhibition achieved with the phage clones is equal to non-labelled IgE concentrations of 1 μg/ml and 1.7 μg/ml, respectively.

human IgE = assay: Anti-IgE response in rabbits immunized with BSW17 mimotope displaying phage (dot ELISA of serum); format: in vivo; details: rabbit serum 1:200 after third boost
Chain of human IgE (P01854 1-428 isoform P01854-1): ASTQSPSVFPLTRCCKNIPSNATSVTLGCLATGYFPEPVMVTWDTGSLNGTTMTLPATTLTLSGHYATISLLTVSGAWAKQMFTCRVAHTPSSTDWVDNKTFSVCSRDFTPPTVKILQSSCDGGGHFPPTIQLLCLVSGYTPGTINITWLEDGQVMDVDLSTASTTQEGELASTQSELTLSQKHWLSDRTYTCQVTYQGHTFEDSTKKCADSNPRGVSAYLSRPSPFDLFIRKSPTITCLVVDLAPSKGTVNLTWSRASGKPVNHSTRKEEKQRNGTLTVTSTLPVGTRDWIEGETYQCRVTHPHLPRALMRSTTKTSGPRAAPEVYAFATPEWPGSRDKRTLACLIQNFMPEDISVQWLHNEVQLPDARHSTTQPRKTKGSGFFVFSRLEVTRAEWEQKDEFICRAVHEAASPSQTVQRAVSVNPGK
Description: To test the feasibility of a BSW17 mimotope-based vaccine approach, rabbits are immunized with phage particles displaying BSW17 mimotope peptides and helper phage VCS M13 as control, respectively. 10^12 cfu of freshly prepared phage particles are dialyzed against PBS at 4°. 1 ml is emulsified with complete Freund's adjuvant for the first immunization, or with 1 ml incomplete Freund's adjuvant for boosting. Immunization is repeated subcutaneously every 14 days. After the third boost, 12 ml of blood are taken, clotted for 4 hours at room temperature in glass vials and centrifuged for 10 minutes at 2000 g. The supernatants are tested for the presence of anti-human IgE antibodies by ELISA. Human IgE from three different individuals (SUS11-IgE; PS-IgE; WT-IgE) is diluted in PBS at a concentration of 50 μg/ml and 1 μl aliquots are dotted onto nitrocellulose. Nitrocellulose is blocked in TBS containing 1.5% casein for 1 hour. Rabbit serum is diluted 1:200 in TBS containing 1.5% casein and incubated overnight. Washing is performed in TBS, TBS-0.05% Tween 20 and TBS for 10 minutes each. Developing goat anti-rabbit-HRP is 1:1.000 diluted in TBS containing 1.5% casein and incubated for 4 hours. Washing and staining is performed as described. […] However, in addition to a massive immune response to the bacteriophage pVIII coat protein, sera of rabbits immunized with BSW17 mimotope phages also contain strongly elevated levels of antibodies which specifically recognize human IgE: […]

BSW17/IgE interaction = assay: Competition ELISA: inhibition of BSW17-HRP/IgE interaction by sera of immunized rabbits; format: in vivo, human; details: rabbit serum 1:50, BSW17-HRP 1:50000
Chain of BSW17/IgE interaction (P01854 1-428 isoform P01854-1): as above
Description: After washing, mAb BSW17 labeled with horseradish peroxidase (BSW17-HRP) is added in a 1:50000 dilution in TBS containing 1.5% casein for 4 hours. Subsequent washing and staining is performed as described.

BSW17 [4] = assay: ELISA: recognition of coated mimotope conjugates by BSW17; format: binding; details: FIGS. 8a, 8b, 9a, 9b
Description: Microtiter plate wells are coated with 1 μg each of SDS236, SDS237 or free KLH and incubated with increasing concentrations of BSW17. Bound antibody is detected with goat anti-mouse IgG-HRP (gamIgG-HRP). The data shown represents means of duplicates minus background binding to uncoated (BSA-blocked) wells.
FIG. 8b summarizes ELISA data obtained with various BSW17 mimotope conjugates coupled to the carrier protein using several chemical coupling procedures. Microtiter plate wells are coated with 5 μg each of the mimotope conjugates, or free KLH, and incubated with 10 μg of BSW17. Bound antibody is detected with gamIgG-HRP. The data shown represents means of duplicates minus background binding to uncoated (BSA-blocked) wells. In contrast to free KLH, each BSW17 mimotope conjugate is found to be recognized by BSW17.
In FIGS. 9a and 9b it is shown that BSW17 mimotopes coupled to KLH or BSA are specifically recognized by BSW17 and not by the non-related monoclonal antibodies 3G9 (anti-human Cε3) and 5H5/F8 (anti-human RIα). Again, microtiter plate wells are coated with 5 μg each of the mimotope conjugates shown and incubated with 10 μg of the corresponding monoclonal antibody. Bound antibody is detected with gamIgG-HRP. The data shown represents means of duplicates minus background binding to uncoated (BSA-blocked) wells.

human IgM = human IgM (Homo sapiens, UniProt P01871); assay: Isotype specificity ELISA of sera of immunized rabbits: IgM; format: in vivo; details: FIG. 12; serum 1:50
Chain of human IgM (P01871 1-433 limits assumed): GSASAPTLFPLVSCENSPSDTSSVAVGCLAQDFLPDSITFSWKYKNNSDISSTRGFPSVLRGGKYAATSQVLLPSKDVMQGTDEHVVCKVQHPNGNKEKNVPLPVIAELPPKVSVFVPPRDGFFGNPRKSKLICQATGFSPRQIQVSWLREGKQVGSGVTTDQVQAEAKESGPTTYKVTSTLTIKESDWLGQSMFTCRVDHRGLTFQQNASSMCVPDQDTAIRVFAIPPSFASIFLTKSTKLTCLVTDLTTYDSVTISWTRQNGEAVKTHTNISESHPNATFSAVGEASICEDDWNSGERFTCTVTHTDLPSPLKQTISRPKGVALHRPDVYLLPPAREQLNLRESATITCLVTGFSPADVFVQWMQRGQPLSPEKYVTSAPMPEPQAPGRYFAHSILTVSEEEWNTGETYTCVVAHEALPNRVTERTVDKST
Chain of human IgM (P01591 23-159 partner): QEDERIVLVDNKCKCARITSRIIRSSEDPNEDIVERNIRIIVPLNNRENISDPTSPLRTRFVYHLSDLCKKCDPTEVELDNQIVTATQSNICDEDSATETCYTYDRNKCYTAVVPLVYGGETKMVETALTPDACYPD
Description: The isotype specificity of the anti-human IgE immune response in the immunized rabbits is monitored by ELISA: microtiter plate wells are each coated with 3 μg of human IgE (SUS-11), IgA, IgG, and IgM, respectively, and incubated with 100 μl of serum samples, diluted 1:50 with ELISA incubation buffer. Rabbit antibodies bound by the immobilized human antibodies are detected by incubation with goat garIgG-HRP. The measured OD405 values are corrected by the read-out obtained with 1:50 diluted pre-immune serum of each corresponding rabbit, diluted 1:50. The data given in FIG. 12 represents mean values of duplicate measurements.

human IgE (human) = human IgE (human) (UniProt P01854); assay: cell-based or functional assay
Chain of human IgE (human) (P01854 other isoform, or with tags, fused parts or gaps): as the sequence (P01854 1-428 isoform P01854-1) above

## CINHRGYWVC (cysteine pairing not given here) [PhBSW.29-8]
BSW17 [1]
  intensity of recognition by BSW 17: + + +
BSW17 [2]
  Binding of phage particles to BSW17: very specifically bind to BSW17
[3]
  Binding of phage particles to other antibodies (8E7, 3G9, 5H10, 5H5/F8): to no other antibodies
BSW17/IgE binding
  Inhibition of the binding of BSW17 to IgE (in words): inhibit the binding of BSW17 to IgE
  Inhibition of labelled IgE binding to BSW17, equal to non-labelled IgE concentration: 1.7 µg/mL
Human IgE
  Recognition of IgE (relative OD) PS-IgE: 9.0 ± 0.4 relative OD
  Recognition of IgE (relative OD) SUS11-IgE: 16.5 ± 0.7 relative OD
  Recognition of IgE (relative OD) WT-IgE: 25.0 ± 1.0 relative OD
BSW17/IgE interaction
  Recognition of different IgE (% inhibition) PS-IgE: 48%
  Recognition of different IgE (% inhibition) SUS11-IgE: 52%
  Recognition of different IgE (% inhibition) WT-IgE: 65%
  Recognition of different IgE (% inhibition) Zavasal-IgE: 47%

## CRRHNYGFWVC (cysteine pairing not given here) [PhBSW.6-9]
BSW17 [1]
  intensity of recognition by BSW 17: ++
BSW17 [2]
  Binding of phage particles to BSW17: very specifically bind to BSW17
[3]
  Binding of phage particles to other antibodies (8E7, 3G9, 5H10, 5H5/F8): to no other antibodies
BSW17/IgE binding
  Inhibition of the binding of BSW17 to IgE (in words): inhibit the binding of BSW17 to IgE
  Inhibition of labelled IgE binding to BSW17, equal to non-labelled IgE concentration: 1 µg/mL
Human IgE
  Recognition of IgE (relative OD) PS-IgE: 8.0 ± 0.6 relative OD
  Recognition of IgE (relative OD) SUS11-IgE: 5.0 ± 0.2 relative OD
  Recognition of IgE (relative OD) WT-IgE: 21.0 ± 1.0 relative OD
BSW17/IgE interaction
  Recognition of different IgE (% inhibition) PS-IgE: 63%
  Recognition of different IgE (% inhibition) SUS11-IgE: 34%
  Recognition of different IgE (% inhibition) WT-IgE: 65%
  Recognition of different IgE (% inhibition) Zavasal-IgE: 51%

## CTRLHTGYWVC (cysteine pairing not given here) [Seq.id.no. 20]
BSW17 [1]
  intensity of recognition by BSW 17: +

## Cys Thr Leu Ser Val Phe Gly Tyr Trp Val Cys (CTLSVFGYWVC; cysteine pairing not given here; also: circular) [Seq.id.no. 21]
BSW17 [1]
  intensity of recognition by BSW 17: + /−

## cyclic GEFCINHRGYWVCGDPA-KLH [SDS236]
BSW17 [4]
  Recognition of conjugate by BSW17: recognized by BSW17 in a dose-dependent manner

## cyclic GEFCRRHNYGFWVCGDPA-KLH [SDS214]
Human IgM
  Recognition of human IgM by serum of immunized rabbit: partial recognition of human IgM

## keyhole limpet hemocyanin [KLH]
BSW17 [4]
  Recognition of conjugate by BSW17: no binding

## linear KTKGSGFFVF-KLH [SDS237]
BSW17 [4]
  Recognition of conjugate by BSW17: recognized by BSW17 in a dose-dependent manner

## monoclonal antibody BSW17
Human IgE (human)
  Specific histamine release (%), A: during sensitization with IgE and BSW17; Experiment 1: 3.6%
  Specific histamine release (%), A: during sensitization with IgE and BSW17; Experiment 2: 3%
  Specific histamine release (%), A: during sensitization with IgE and BSW17; Experiment 3: 4.4%
  Specific histamine release (%), B: after triggering with Le27; cells sensitized with IgE and BSW17; Experiment 1: 3.1%
  Specific histamine release (%), B: after triggering with Le27; cells sensitized with IgE and BSW17; Experiment 2: 1.5%
  Specific histamine release (%), B: after triggering with Le27; cells sensitized with IgE and BSW17; Experiment 3: 0.9%
